Assay results reported in patent US20120270844A1, “METHODS FOR TREATING ALZHEIMER'S DISEASE” (aFRAXis, Inc., priority 2009, published 2012).

Key:
Assay type in all cases: biochemical
[1] = target: PAK1 (Homo sapiens, UniProt Q13153); assay: Z'Lyte fluorescence-based (FRET) PAK kinase assay, PAK1; details: 50 μM ATP
Description: (§1) A fluorescence-based assay format is used to determine IC50 values of test compounds in vitro. Purified PAK kinase is incubated with ATP, and a test compound at various concentrations and a substrate peptide containing two fluorophores. In a second step, the reaction mix is incubated with a site-specific protease that cleaves non-phosphorylated bat not phosphorylated substrate peptide, disrupting the FRET signal generated by the two fluorophores in the cleaved peptide (Z′Lyte™ Kinase assay platform; Life Technologies).
(§2) Reagents: 50 mM HEPES, pH 7.5; 0.01% BRIJ-35; […]; 1 mM EGTA, 2 uM substrate peptide Ser/Thr20 (proprietary Life Technologies Sequence), PAK enzyme [2.42-30.8 ng for PAK1, 0.29-6 ng for PAK2, 1.5-20 ng for PAK3 and 0.1-0.86 ng for PAK4; actual enzyme amounts depend on lot activity of the enzyme preparation]
(§3) Test compounds are dissolved in DMSO at various concentrations; the final DMSO concentration in the assay reaction is 1%.
(§4) ATP concentration at […] apparent is used in the assay [50 ┌M ATP for PAK1 assay, 75 ┌M ATP for PAK2 assay, 100 μM ATP for PAK3 assay, 5 μM ATP for PAK4 assay] in a total assay volume of 10 μl. Assay reactions are incubated at room temperature for 1 hr. Following the kinase reaction, 5 μl of 1:256 dilution of development solution A (Life Technologies) is added and the reaction mix is incubated for an additional 1 hr at room temperature.
(§5) Plates are analyzed in a standard fluorescence plate reader (Tecan or equivalent) using an excitation wavelength of 400 nn and emission wavelengths of 445 nm and 520 nm.
(§6) Inhibition of kinase reaction is determined by emission ratio=emission@445 nm/emission@520 nm
(§7) A fluorescence-based assay format is used to determine IC50 values of test compounds in vitro. Purified PAK kinase is incubated with ATP, and a test compound at various concentrations and a substrate peptide containing two fluorophores. In a second step, the reaction mix is incubated with a site-specific protease that cleaves non-phosphorylated but not phosphorylated substrate peptide, disrupting the FRET signal generated by the two fluorophores in the cleaved peptide (Z'Lyte™ Kinase assay platform Life Technologies).
(§8) Reagents: 50 mM HEPES, pH 7.5; 0.01% BRIJ-35; 10 mM MgCl2; 1 mM EGTA, 2 uM substrate peptide Ser/Thr20 (proprietary Life Technologies Sequence), PAK enzyme [2.42-30.8 ng for PAK1, 0.29-6 ng for PAK2, 1.5-20 ng for PAK3 and 0.1-0.86 ng for PAK4; actual enzyme amounts depend on lot activity of the enzyme preparation]
(§9) ATP concentration at Km apparent is used in the assay [50 μMATP for PAK1 assay, 75 µM ATP for PAK2 assay, 100 μM ATP for PAK3 assay, 5 μM ATP for PAK4 assay] in a total assay volume of […] Assay reactions are incubated at room temperature for 1 hr. Following the kinase reaction. […] of 1:256 dilution of development solution A (Life Technologies) is added and the reaction mix is incubated for an additional 1 hr at room temperature.
(§10) Plates are analyzed in a standard fluorescence plate reader (Teem or equivalent) using an excitation wavelength of 400 nm and emission wavelengths of 445 nm and 520 nm.

[2] = target: PAK2 (Homo sapiens, UniProt Q13177); assay: Z'Lyte fluorescence-based (FRET) PAK kinase assay, PAK2
Chain of PAK2 (Q13177 whole entry): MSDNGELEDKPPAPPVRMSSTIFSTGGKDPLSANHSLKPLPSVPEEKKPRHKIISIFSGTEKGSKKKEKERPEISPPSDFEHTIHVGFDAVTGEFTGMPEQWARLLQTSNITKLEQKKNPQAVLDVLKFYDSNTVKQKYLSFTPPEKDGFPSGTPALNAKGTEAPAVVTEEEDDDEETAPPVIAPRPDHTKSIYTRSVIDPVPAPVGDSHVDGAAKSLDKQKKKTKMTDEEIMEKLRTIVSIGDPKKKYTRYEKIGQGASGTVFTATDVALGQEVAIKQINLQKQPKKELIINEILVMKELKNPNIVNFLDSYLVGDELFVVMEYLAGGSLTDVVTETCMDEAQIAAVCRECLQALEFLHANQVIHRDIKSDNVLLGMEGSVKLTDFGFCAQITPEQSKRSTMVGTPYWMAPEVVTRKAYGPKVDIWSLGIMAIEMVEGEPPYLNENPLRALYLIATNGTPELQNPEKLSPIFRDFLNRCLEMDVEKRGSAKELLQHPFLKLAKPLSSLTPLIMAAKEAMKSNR
Description: as §1, §2, §3, §4, §5, §6, §7, §8, §9, §10

[3] = target: PAK3 (Homo sapiens, UniProt O75914); assay: Z'Lyte fluorescence-based (FRET) PAK kinase assay, PAK3; details: 100 μM ATP
Chain of PAK3 (O75914 whole entry): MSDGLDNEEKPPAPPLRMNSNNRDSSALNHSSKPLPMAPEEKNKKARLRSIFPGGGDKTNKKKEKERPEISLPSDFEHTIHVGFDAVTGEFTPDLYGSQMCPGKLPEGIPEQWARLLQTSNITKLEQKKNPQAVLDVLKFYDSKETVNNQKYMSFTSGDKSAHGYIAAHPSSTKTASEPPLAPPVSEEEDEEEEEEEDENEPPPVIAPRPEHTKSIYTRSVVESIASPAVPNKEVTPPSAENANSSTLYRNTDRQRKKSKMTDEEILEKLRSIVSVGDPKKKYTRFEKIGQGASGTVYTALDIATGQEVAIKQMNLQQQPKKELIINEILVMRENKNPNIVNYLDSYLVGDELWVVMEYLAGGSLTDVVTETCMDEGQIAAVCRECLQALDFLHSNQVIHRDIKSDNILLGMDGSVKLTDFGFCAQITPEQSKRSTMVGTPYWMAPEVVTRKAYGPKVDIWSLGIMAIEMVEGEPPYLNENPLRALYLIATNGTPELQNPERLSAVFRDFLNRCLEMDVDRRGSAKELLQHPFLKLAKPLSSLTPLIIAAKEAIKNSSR
Description: as §1, §2, §3, §4, §5, §6, §7, §8, §9, §10

[4] = target: PAK4 (Homo sapiens, UniProt O96013); assay: Z'Lyte fluorescence-based (FRET) PAK kinase assay, PAK4; details: 5 μM ATP
Chain of PAK4 (O96013 whole entry): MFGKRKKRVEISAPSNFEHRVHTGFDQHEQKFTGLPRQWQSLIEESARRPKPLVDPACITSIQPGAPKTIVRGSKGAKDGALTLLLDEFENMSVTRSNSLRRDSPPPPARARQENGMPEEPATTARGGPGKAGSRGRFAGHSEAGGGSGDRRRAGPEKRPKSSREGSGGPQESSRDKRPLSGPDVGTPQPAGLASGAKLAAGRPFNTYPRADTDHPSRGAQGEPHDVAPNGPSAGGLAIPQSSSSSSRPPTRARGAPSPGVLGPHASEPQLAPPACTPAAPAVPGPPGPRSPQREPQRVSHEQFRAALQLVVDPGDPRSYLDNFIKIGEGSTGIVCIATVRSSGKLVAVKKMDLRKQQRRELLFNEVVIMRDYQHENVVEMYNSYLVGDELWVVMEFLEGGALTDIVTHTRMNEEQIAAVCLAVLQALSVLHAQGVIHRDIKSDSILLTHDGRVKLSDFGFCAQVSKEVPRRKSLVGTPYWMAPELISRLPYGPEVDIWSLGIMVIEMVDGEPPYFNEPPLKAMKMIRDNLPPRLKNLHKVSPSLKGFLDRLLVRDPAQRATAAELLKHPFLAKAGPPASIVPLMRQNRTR
Description: as §1, §2, §3, §4, §5, §6, §7, §8, §9, §10

[5] = Table 1 of Example 100, 75 μM ATP
[6] = Table 1 of Example 29 (own compound numbering)
[7] = Table 1 of Example 29 (own compound numbering), 75 µM ATP

Chain of PAK1 (Q13153 whole entry): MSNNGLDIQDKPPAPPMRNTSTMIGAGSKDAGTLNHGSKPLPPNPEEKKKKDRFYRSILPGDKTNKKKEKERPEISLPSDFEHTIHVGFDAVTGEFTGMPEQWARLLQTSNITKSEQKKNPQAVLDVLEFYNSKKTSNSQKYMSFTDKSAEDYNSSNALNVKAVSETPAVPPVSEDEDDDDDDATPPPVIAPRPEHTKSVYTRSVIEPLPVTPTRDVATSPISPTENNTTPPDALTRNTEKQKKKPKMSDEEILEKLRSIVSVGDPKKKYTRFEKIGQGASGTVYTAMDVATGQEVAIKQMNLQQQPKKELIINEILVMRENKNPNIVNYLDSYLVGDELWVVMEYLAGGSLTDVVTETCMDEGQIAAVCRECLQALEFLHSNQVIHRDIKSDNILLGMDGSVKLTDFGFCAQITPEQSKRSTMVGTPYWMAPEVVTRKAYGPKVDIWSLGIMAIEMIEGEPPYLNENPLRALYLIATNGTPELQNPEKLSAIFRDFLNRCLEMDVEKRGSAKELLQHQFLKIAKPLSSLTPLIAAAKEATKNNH

Row | SMILES | IC50 ([1]; Table 1 of Example 100) | IC50 [2, 5] | IC50 ([3]; Table 1 of Example 100) | IC50 ([4]; Table 1 of Example 100) | IC50 [1, 6] | IC50 [3, 6] | IC50 [4, 6] | IC50 [2, 7]
1 | CN1CCN(c2ccc(Nc3ncc4ccc(=O)n(C5CCCC5)c4n3)cc2)CC1 [Compound 1] | < 1000 nM | 1000 to 10000 nM | 1000 to 10000 nM | 1000 to 10000 nM |  |  |  | 
2 | CN1CCN(c2ccc(Nc3ncc4ccc(=O)n(C5CCCc6ccccc65)c4n3)cc2)CC1 (centres unmarked) [Compound 5] | 1000 to 10000 nM | 1000 to 10000 nM | 1000 to 10000 nM | 1000 to 10000 nM |  |  |  | 
3 | CN1CCN(c2ccc(Nc3ncc4ccc(=O)n(C5CCc6ccccc65)c4n3)cc2)CC1 (centres unmarked) [Compound 6] | < 1000 nM | 1000 to 10000 nM | 1000 to 10000 nM | 1000 to 10000 nM |  |  |  | 
4 | O=c1ccc2cnc(Nc3ccc(NC4CCCNC4)cc3)nc2n1Cc1ccccc1C(F)(F)F (centres unmarked) [Compound 7] | < 1000 nM | < 1000 nM | < 1000 nM | < 1000 nM |  |  |  | 
5 | O=c1ccc2cnc(Nc3ccc(NC4CCNCC4)cc3)nc2n1Cc1ccccc1C(F)(F)F [Compound 8] | < 1000 nM | < 1000 nM | < 1000 nM | < 1000 nM |  |  |  | 
6 | O=c1ccc2cnc(Nc3ccc(N4CCNCC4)cc3)nc2n1Cc1ccccc1C(F)(F)F [Compound 9] | < 1000 nM | < 1000 nM | < 1000 nM | < 1000 nM |  |  |  | 
7 | CN1CCN(c2ccc(Nc3ncc4ccc(=O)n([C@@H]5CCCc6ccccc65)c4n3)cc2)CC1 [Compound 10] | 1000 to 10000 nM | 1000 to 10000 nM | 1000 to 10000 nM | 1000 to 10000 nM |  |  |  | 
8 | O=c1ccc2cnc(Nc3ccc(OC4CCNCC4)cc3)nc2n1Cc1ccccc1C(F)(F)F [Compound 12] | < 1000 nM | < 1000 nM | < 1000 nM | < 1000 nM |  |  |  | 
9 | CN(c1ccc(Nc2ncc3ccc(=O)n(Cc4ccccc4C(F)(F)F)c3n2)cc1)C1CCCNC1 (centres unmarked) [Compound 13] | < 1000 nM | < 1000 nM | < 1000 nM | < 1000 nM |  |  |  | 
10 | CN1CCN(c2ccc(Nc3ncc4ccc(=O)n(Cc5ccc(Cl)cc5)c4n3)cc2)CC1 [Compound 30] | 1000 to 10000 nM | > 10000 nM |  | > 10000 nM |  |  |  | 
11 | CN1CCN(c2ccc(Nc3ncc4ccc(=O)n(Cc5ccccc5Cl)c4n3)cc2)CC1 [Compound 31] | < 1000 nM | < 1000 nM |  | 1000 to 10000 nM |  |  |  | 
12 | COc1cccc(Cn2c(=O)ccc3cnc(Nc4ccc(N5CCN(C)CC5)cc4)nc32)c1 [Compound 33] | 1000 to 10000 nM | > 10000 nM |  | > 10000 nM |  |  |  | 
13 | COc1ccccc1Cn1c(=O)ccc2cnc(Nc3ccc(N4CCN(C)CC4)cc3)nc21 [Compound 34] | < 1000 nM | 1000 to 10000 nM |  | 1000 to 10000 nM |  |  |  | 
14 | CN1CCN(c2ccc(Nc3ncc4ccc(=O)n(Cc5ccccc5F)c4n3)cc2)CC1 [Compound 35] | 1000 to 10000 nM | 1000 to 10000 nM |  | 1000 to 10000 nM |  |  |  | 
15 | CN1CCN(c2ccc(Nc3ncc4ccc(=O)n(Cc5ccccn5)c4n3)cc2)CC1 [Compound 36] | 1000 to 10000 nM | > 10000 nM |  | 1000 to 10000 nM |  |  |  | 
16 | CN1CCN(c2ccc(Nc3ncc4ccc(=O)n(Cc5ccncc5)c4n3)cc2)CC1 [Compound 37] | 1000 to 10000 nM | > 10000 nM |  | > 10000 nM |  |  |  | 

Row | SMILES | IC50 ([1]; Table 1 of Example 100) | IC50 [2, 5] | IC50 ([3]; Table 1 of Example 100) | IC50 ([4]; Table 1 of Example 100) | IC50 [1, 6] | IC50 [3, 6] | IC50 [4, 6] | IC50 [2, 7]
17 | CN1CCN(c2ccc(Nc3ncc4ccc(=O)n(Cc5cccnc5)c4n3)cc2)CC1 [Compound 38] | 1000 to 10000 nM | > 10000 nM |  | > 10000 nM |  |  |  | 
18 | Cc1ccccc1Cn1c(=O)ccc2cnc(Nc3ccc(N4CCN(C)CC4)cc3)nc21 [Compound 39] | < 1000 nM | < 1000 nM |  | 1000 to 10000 nM |  |  |  | 
19 | CN1CCN(c2ccc(Nc3ncc4ccc(=O)n(Cc5ccccc5C#N)c4n3)cc2)CC1 [Compound 40] | < 1000 nM | < 1000 nM |  | 1000 to 10000 nM |  |  |  | 
20 | CN1CCN(c2ccc(Nc3ncc4ccc(=O)n(Cc5ccccc5OC(F)(F)F)c4n3)cc2)CC1 [Compound 41] | < 1000 nM | < 1000 nM |  | 1000 to 10000 nM |  |  |  | 
21 | CN1CCN(c2ccc(Nc3ncc4ccc(=O)n(Cc5c(F)cccc5C(F)(F)F)c4n3)cc2)CC1 [Compound 112] |  |  |  |  | < 1000 nM | < 1000 nM | < 1000 nM | 
22 | O=c1ccc2cnc(Nc3ccc(N4CCNCC4)c(F)c3)nc2n1Cc1c(Cl)cccc1C1CC1 [Compound 137] |  |  |  |  | < 1000 nM | < 1000 nM | 1000 to 10000 nM | 
23 | CSc1cccc(F)c1Cn1c(=O)ccc2cnc(Nc3ccc(N4CCN(C)CC4)cc3)nc21 [Compound 138] |  |  |  |  | < 1000 nM | < 1000 nM | < 1000 nM | 
24 | CN1CCN(c2ccc(Nc3nccc(-c4ccc(O)nc4)n3)cc2)CC1 [Compound 143] |  |  |  |  | 1000 to 10000 nM |  | > 10000 nM | > 10000 nM
25 | Cc1cc(Nc2nccc(-c3ccc(NCCN)nc3)n2)ccc1N1CCN(C)CC1 [Compound 152] |  |  |  |  | < 1000 nM | 1000 to 10000 nM | < 1000 nM | 
26 | O=c1c(-c2ccccc2)cc2cnc(Nc3ccc(N4CCNCC4)cc3)nc2n1Cc1ccccc1C(F)(F)F [Compound 163] |  |  |  |  | < 1000 nM | < 1000 nM | 1000 to 10000 nM | 
27 | CN1CCN(c2ccc(Nc3ncc4ccc(=O)n(Cc5c(F)cccc5C(F)(F)F)c4n3)cc2)CC1 [compound 58] | < 1000 nM |  | < 1000 nM | < 1000 nM |  |  |  | 
28 | CN1CCN(c2ccc(Nc3ncc4ccc(=O)n(Cc5ccccc5)c4n3)cc2)CC1 [compound 80] |  |  |  |  | 1000 to 10000 nM |  | > 10000 nM | 1000 to 10000 nM
29 | Cc1cc(Nc2nccc(-c3ccc(NCCN)nc3)n2)ccc1N1CCN(C)CC1 [compound 83] | < 1000 nM |  | 1000 to 10000 nM | < 1000 nM |  |  |  | 
30 | O=c1c(-c2ccccc2)cc2cnc(Nc3ccc(N4CCNCC4)cc3)nc2n1Cc1ccccc1C(F)(F)F [compound 94] | < 1000 nM |  | < 1000 nM | 1000 to 10000 nM |  |  |  | 
31 | CN1CCN(c2ccc(Nc3ncc4ccc(=O)n(Cc5ccccc5OC(F)(F)F)c4n3)cc2)CC1 [compound 97] |  |  |  |  |  | < 1000 nM | < 1000 nM | 
32 | CSc1cccc(F)c1Cn1c(=O)ccc2cnc(Nc3ccc(N4CCN(C)CC4)cc3)nc21 [compound 99] | < 1000 nM |  | < 1000 nM | < 1000 nM |  |  |  | 
